Assay results: ChEMBL document CHEMBL1201862, “PubChem BioAssay data set” (2004)
Active and inactive are the calls of the source.

Tests used:
[1] = target: CAAX prenyl protease 1 (Saccharomyces cerevisiae S288c, UniProt P47154); assay: Ste24 protease inhibitors, dose response, biochemical, S. cerevisiae, plate reader, cherry-pick (AID 488815)
[2] = target: CAAX prenyl protease 2 (Homo sapiens, UniProt Q9Y256); assay: human Rce1 protease inhibitors, dose response, biochemical, yeast membranes, quenched-peptide fluorescence, cherry-pick (AID 588849)
[3] = target: UDP-galactopyranose mutase (Mycobacterium tuberculosis, UniProt P9WIQ1); assay: Inhibitors of Mycobacterium tuberculosis UDP-galactopyranose mutase (UGM) enzyme Measured in Biochemical System Using Plate Reader - 2105-02_Inhibitor_Dose_CherryPick_Activity. [Related pubchem assays (depositor defined):AID504439]
[4] = target: Beta-lactamase (Pseudomonas aeruginosa, UniProt Q79MP6);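 further: biochemical dose-response test of metallo-beta-lactamase enzyme inhibition, read out by epi-absorbance; purified recombinant IMP-1 metallo-beta-lactamase with nitrocefin as substrate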
[5] = target: Beta-lactamase (Salmonella choleraesuis (strain SC-B67), UniProt Q5J463)
[6] = target: Keap1/Nrf2 (Homo sapiens, UniProt Q14145); assay: Keap1-Nrf2 protein-protein interaction inhibitors, dose response, biochemical, fluorescence polarization, cherry-picked samples (AID 588683)
[7] = target: T1, RNA-binding protein pos-1 (Caenorhabditis elegans, UniProt G5EF15); assay: inhibitors of POS-1/mex-3 RNA binding, dose response, biochemical, fluorescence polarization (AID 1964);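 further: purified POS-1 fused to maltose binding protein made in E. coli; potency of compounds blocking POS-1 binding to fluorescent RNA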
T1 sequence (G5EF15 whole entry): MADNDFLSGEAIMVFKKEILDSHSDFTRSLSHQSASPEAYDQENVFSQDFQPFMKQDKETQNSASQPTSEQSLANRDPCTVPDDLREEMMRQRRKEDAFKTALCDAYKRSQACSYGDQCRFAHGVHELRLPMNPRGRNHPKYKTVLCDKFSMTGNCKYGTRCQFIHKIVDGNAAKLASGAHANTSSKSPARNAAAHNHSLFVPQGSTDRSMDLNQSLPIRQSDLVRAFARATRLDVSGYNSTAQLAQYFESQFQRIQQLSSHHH

[8] = target: T2, Zinc finger protein mex-5 (Caenorhabditis elegans, UniProt Q9XUB2); assay: MEX-5/TCR-2 RNA interaction inhibitors, dose response, biochemical, C. elegans, fluorescence polarization (AID 1960)
T2 sequence (Q9XUB2 whole entry): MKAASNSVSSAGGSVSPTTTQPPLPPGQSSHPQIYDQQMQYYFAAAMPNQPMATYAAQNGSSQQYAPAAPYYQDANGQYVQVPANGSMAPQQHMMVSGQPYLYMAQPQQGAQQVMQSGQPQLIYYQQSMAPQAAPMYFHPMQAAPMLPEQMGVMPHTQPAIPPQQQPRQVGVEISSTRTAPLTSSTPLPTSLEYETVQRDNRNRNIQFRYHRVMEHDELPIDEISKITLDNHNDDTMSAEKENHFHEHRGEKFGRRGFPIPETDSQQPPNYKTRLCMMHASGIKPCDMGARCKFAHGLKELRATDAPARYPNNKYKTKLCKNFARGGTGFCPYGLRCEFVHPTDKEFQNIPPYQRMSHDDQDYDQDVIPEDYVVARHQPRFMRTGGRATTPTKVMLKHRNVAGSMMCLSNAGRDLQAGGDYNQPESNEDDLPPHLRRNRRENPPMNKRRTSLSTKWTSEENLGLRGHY

[9] = target: CAAX prenyl protease 2 (Saccharomyces cerevisiae S288c, UniProt Q03530); type: biochemical
[10] = tested on: HEK293; assay: cells; type: functional, cell-based; details: Homo sapiens
[11] = target: T3, Nuclear receptor subfamily 0 group B member 1 (Homo sapiens, UniProt P51843); assay: Luminescence-based cell-based high throughput dose response assay for inhibitors of the orphan nuclear receptor subfamily 0, group B, member 1 (DAX1; NR0B1). [Related pubchem assays (depositor defined):AID504766, AID504790]; type: functional
T3 sequence (P51843 whole entry): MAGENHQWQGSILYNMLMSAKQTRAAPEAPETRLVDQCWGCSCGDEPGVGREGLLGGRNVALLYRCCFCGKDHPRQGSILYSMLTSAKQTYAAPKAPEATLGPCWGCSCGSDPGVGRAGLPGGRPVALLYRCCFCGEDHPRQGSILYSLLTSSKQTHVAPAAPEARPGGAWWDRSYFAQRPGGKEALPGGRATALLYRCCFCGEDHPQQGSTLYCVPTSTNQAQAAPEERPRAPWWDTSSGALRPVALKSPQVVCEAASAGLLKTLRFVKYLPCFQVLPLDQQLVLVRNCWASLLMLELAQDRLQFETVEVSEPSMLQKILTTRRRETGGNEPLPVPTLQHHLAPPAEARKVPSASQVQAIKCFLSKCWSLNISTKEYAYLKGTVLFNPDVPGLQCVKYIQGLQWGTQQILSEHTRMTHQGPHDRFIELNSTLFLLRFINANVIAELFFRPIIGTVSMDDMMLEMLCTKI

[12] = target: Trypsin (Sus scrofa, UniProt P00761); assay: porcine trypsin inhibitors, dose response, selectivity assay for Rce1 protease inhibitor project, biochemical, quenched peptide fluorescence, cherry-pick (AID 488789)
[13] = inhibitors of firefly luciferase expression or activity, dose response, H4 neuroglioma cells, luminescence (AID 1990); type: functional, cell-based
[14] = tested on: HEK293; assay: NOD1 signaling inhibitors, primary screen, cell-based, luminescence, uHTS (AID 1578); type: functional; details: Homo sapiens
[15] = tested on: HEK293; assay: NOD2 signaling inhibitors in MDP-stimulated cells, cell-based, uHTS, luminescence (AID 2001); type: functional; details: Homo sapiens
[16] = target: Nucleotide-binding oligomerization domain-containing protein 2 (Homo sapiens, UniProt Q9HC29); assay: NOD2 signaling inhibitors, cell-based, luminescence, uHTS, HEK293 (AID 1566); type: functional
[17] = inhibitors of SNCA 5'UTR-driven reporter translation, confirmation, H4 neuroglioma cells, luminescence (AID 1988); type: functional, cell-based
[18] = Luminescence Cell-Based Dose Response HTS to Identify Inhibitors of 5'UTR Stem-Loop Driven Prion Protein mRNA Translation in H4 Neuroglioblastoma Cells. [Related pubchem assays: 1827 (Project Summary), 1813 (Primary HTS)]; type: functional
[19] = tested on: HEK293; assay: cells; type: functional, cell-based; details: Homo sapiens; remark: listed apart in the source
[20] = tested on: HEK293; assay: cells; type: functional, cell-based; details: Homo sapiens; remark: listed apart in the source
[21] = tested on: HEK293; assay: cells; type: functional, cell-based; details: Homo sapiens; remark: listed apart in the source
[22] = target: Cytochrome P450 2C9 (Homo sapiens, UniProt P11712)
[23] = target: T4, Cytochrome P450 1A2 (Homo sapiens, UniProt P05177);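 further: PubChem cytochrome P450 panel assay, CYP1A2 panel member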
T4 sequence (P05177 whole entry): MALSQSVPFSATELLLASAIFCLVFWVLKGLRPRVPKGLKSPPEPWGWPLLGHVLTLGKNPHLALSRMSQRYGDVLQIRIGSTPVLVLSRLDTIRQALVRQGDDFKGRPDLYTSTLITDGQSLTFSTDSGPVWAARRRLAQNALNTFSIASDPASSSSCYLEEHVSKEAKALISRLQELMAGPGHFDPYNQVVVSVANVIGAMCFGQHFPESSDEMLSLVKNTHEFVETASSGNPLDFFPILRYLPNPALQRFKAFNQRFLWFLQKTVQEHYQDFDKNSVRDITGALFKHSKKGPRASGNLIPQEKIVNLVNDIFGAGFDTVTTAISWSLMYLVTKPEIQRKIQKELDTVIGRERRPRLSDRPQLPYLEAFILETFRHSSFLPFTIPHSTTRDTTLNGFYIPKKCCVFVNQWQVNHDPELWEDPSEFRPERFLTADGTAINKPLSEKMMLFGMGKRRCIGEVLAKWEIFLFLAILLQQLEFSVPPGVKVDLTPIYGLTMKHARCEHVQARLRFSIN

[24] = target: Cytochrome P450 2C19 (Homo sapiens, UniProt P33261); assay: Cytochrome panel assay with activity outcomes. Panel member name: p450-cyp2c19 Compounds with AC50 equal or less than 10 uM are considered active; type: functional
[25] = target: Cytochrome P450 3A4 (Homo sapiens, UniProt P08684);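 further: CYP3A4 tested as one member of a cytochrome P450 panel screen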
[26] = target: T4, Cytochrome P450 1A2; remark: listed apart in the source
[27] = tested on: HeLa; assay: HeLa cell cytotoxicity, dose response, cytotoxicity control, 24 h, cherry-picked samples (AID 504726); type: functional, cell-based; details: Homo sapiens;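 further: potency for cytotoxicity as loss of luminescence signal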
[28] = target: ORF 73 (Human herpesvirus 8, UniProt O40947); assay: inhibitors of C-LANA binding to LBS DNA, dose response, biochemical, fluorescence polarization, cherry-picked samples (AID 504725); parameters: species or system Human gammaherpesvirus 8;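 further: fluorescence polarization of a labeled DNA duplex reporting LANA DNA binding; potency is for inhibitors that block LANA binding to the DNA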
[29] = target: Cytochrome P450 2D6 (Homo sapiens, UniProt P10635);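 further: CYP2D6 member of a cytochrome P450 panel assay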
[30] = target: Luciferin 4-monooxygenase (Photinus pyralis, UniProt P08659); assay: firefly luciferase enzyme inhibitors, dose response, biochemical, luminescence (AID 1891)
[31] = tested on: HeLa; assay: HeLa cell cytotoxicity, dose response, cytotoxicity control for MITF activator project, CellTiter-Glo luminescence, cherry-pick samples (AID 540259); type: functional, cell-based; details: Homo sapiens
[32] = Luminescence Cell-Based Dose Confirmation HTS to Identify Inhibitors of Platelet Dense Granule Release. [Related pubchem assays: 1663 (Primary HTS), 1678 (Summary of Project)]; type: functional
[33] = Luminescence Cell-Based Dose Response HTS to Identify Activators of Luciferase Translation or Activity in H4 […] Cells. [Related pubchem assays: 1829 (Project Summary), 1814 (Primary HTS)]; type: functional
[34] = tested on: H4; assay: Luminescence Cell-Based Dose Response HTS to Identify Activators of 5'UTR Stem-Loop Driven Prion Protein mRNA Translation in H4 Neuroglioblastoma Cells. [Related pubchem assays: 1829 (Project Summary), 1814 (Primary HTS)]; type: functional; details: Homo sapiens

Sequence of Cytochrome P450 2C9 (P11712 whole entry): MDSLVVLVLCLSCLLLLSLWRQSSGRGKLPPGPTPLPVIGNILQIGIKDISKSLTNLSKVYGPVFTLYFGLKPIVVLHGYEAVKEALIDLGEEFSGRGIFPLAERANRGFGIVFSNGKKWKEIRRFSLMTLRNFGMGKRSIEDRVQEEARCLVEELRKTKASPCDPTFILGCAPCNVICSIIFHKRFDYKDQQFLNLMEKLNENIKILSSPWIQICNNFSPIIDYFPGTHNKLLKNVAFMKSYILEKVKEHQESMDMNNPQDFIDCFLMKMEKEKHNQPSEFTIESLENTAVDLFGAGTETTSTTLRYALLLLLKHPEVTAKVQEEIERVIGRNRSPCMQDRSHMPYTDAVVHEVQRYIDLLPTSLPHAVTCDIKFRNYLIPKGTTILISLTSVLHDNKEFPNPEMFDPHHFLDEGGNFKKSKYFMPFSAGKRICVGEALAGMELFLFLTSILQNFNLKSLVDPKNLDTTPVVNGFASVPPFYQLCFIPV
Sequence of CAAX prenyl protease 2 (Saccharomyces cerevisiae S288c, UniProt Q03530) (Q03530 whole entry): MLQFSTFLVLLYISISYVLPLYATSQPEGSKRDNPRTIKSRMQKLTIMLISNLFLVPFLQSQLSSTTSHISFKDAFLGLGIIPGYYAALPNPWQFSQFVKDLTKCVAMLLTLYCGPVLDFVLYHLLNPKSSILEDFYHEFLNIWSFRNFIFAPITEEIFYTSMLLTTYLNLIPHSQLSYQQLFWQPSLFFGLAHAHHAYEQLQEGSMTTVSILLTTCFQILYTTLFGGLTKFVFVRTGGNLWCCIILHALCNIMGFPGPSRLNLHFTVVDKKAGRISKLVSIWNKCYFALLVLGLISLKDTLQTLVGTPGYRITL
Sequence of CAAX prenyl protease 2 (Homo sapiens, UniProt Q9Y256) (Q9Y256 whole entry): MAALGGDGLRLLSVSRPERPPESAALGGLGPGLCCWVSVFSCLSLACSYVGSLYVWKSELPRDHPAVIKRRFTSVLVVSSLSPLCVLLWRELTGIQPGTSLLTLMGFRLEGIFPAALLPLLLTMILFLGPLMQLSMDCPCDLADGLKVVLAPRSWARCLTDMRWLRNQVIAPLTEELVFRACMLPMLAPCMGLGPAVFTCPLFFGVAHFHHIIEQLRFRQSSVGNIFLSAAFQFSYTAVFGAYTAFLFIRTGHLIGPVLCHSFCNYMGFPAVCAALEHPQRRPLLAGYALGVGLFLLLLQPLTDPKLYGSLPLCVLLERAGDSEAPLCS
Sequence of Nucleotide-binding oligomerization domain-containing protein 2 (Q9HC29 whole entry, the tested form may be a part): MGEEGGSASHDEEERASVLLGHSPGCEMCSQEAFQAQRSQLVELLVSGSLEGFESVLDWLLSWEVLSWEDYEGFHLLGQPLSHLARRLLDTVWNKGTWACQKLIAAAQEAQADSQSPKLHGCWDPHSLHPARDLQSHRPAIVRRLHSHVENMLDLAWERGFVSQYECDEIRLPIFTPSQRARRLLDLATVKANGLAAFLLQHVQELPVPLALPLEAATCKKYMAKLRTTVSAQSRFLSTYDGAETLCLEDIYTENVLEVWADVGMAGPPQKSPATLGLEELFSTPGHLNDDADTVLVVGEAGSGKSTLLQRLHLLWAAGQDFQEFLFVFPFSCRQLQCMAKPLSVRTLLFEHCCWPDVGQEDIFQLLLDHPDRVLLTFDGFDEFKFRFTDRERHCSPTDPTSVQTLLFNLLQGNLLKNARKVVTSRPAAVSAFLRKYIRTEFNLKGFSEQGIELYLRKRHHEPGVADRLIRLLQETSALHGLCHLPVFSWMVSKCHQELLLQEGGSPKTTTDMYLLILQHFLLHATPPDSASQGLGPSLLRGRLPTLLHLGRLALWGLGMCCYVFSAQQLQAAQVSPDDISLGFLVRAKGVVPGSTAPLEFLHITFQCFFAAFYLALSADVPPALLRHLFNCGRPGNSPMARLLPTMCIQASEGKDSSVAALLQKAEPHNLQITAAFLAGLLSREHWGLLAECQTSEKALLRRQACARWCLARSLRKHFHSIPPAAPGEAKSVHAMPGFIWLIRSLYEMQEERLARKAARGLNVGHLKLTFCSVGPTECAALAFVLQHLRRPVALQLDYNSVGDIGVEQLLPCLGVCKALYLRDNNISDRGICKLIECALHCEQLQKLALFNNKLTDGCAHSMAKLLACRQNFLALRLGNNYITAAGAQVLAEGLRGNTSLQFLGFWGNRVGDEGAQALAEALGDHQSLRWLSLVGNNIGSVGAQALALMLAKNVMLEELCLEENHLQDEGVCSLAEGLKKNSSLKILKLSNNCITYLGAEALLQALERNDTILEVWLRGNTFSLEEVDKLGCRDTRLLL
Sequence of CAAX prenyl protease 1 (P47154 whole entry): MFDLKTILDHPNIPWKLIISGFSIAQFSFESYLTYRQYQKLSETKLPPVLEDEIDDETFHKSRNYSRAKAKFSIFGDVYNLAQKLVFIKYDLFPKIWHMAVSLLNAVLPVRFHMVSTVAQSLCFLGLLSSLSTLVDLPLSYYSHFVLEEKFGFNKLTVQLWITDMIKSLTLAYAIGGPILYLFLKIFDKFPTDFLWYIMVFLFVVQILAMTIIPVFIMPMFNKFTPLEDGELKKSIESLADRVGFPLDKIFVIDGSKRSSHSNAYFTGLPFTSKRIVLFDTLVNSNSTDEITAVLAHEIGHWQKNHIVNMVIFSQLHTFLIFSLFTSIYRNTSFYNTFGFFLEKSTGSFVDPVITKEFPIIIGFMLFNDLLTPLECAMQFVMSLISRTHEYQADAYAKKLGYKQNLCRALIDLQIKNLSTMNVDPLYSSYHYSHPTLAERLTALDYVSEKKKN
Sequence of Cytochrome P450 2C19 (P33261 whole entry): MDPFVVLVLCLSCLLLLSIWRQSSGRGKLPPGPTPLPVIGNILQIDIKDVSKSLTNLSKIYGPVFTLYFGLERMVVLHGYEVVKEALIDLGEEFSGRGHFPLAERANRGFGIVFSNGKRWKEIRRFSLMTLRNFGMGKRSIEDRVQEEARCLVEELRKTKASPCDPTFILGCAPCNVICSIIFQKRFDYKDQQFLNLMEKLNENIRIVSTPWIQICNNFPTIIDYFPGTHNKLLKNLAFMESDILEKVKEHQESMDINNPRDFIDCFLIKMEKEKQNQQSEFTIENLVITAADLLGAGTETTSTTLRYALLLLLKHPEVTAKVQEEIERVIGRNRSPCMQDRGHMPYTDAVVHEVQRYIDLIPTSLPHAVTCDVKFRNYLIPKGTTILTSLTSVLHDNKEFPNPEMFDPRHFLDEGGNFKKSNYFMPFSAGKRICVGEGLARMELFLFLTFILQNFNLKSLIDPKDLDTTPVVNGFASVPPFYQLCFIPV
Sequence of Cytochrome P450 3A4 (P08684 whole entry): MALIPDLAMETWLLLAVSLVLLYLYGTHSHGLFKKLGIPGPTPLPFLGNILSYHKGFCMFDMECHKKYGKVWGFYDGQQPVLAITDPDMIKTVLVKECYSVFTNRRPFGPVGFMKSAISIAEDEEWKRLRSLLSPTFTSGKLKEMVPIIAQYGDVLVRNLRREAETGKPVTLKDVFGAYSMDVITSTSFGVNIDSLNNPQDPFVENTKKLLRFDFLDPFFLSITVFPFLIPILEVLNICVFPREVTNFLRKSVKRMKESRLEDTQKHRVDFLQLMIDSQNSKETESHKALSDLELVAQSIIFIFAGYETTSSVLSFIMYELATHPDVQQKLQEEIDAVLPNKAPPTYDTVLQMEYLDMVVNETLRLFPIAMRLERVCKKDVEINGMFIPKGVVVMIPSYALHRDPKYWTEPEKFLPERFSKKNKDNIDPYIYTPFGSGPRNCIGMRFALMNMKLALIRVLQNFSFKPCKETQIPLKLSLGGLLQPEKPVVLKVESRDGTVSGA
Sequence of UDP-galactopyranose mutase (P9WIQ1 whole entry): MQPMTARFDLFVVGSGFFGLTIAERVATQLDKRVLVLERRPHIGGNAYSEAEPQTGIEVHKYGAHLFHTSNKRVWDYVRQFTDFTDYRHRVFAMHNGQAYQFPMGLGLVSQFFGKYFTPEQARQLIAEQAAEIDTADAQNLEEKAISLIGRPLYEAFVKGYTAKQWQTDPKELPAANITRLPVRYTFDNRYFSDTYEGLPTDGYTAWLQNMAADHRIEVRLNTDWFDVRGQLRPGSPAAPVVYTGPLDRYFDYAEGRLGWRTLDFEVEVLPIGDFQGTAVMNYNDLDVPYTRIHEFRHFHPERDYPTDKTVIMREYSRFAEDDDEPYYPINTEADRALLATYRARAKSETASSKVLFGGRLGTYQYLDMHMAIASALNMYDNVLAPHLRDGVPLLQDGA
Sequence of Beta-lactamase (Salmonella choleraesuis (strain SC-B67), UniProt Q5J463) (Q5J463 whole entry): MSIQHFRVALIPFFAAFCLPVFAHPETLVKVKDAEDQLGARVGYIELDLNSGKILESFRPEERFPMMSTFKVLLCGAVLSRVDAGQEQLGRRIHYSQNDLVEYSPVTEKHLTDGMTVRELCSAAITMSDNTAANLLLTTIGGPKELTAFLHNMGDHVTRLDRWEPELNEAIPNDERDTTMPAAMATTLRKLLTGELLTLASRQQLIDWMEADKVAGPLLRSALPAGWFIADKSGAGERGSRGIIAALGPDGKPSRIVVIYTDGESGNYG
Sequence of Cytochrome P450 2D6 (P10635 whole entry): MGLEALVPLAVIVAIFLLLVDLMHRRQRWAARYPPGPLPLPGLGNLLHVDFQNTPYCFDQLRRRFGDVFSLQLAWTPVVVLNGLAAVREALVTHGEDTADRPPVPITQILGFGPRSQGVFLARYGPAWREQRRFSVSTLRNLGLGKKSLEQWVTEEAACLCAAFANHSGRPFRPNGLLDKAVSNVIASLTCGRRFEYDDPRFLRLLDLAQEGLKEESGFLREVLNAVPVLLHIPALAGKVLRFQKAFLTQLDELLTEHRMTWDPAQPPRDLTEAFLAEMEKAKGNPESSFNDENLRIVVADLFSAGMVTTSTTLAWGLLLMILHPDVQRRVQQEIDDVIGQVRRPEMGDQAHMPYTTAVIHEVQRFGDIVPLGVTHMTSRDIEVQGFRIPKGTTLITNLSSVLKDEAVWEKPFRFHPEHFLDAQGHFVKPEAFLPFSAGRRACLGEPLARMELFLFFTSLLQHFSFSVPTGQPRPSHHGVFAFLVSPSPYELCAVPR

## COCc1cc(C)n(CC(=O)NCc2ccccc2)c(=O)c1C#N
[1]
  AC50: 7.22 µM (active)
[2]
  AC50: 25.8 µM (active)

## CN1C(=O)c2cccc3c(N)ccc(c23)C1=O
[3]
  AC50: 1.59 µM (active)
[4]
  IC50: 10.5 µM (inactive)
[5]
  IC50: 5.56 µM (active)
[6]
  AC50: 0.839 µM (active)
[7]
  EC50: 0.363 µM (inconclusive)
[8]
  EC50: 0.116 µM (inconclusive)

## CN(C)C(=O)COc1ccc2ccc(=O)oc2c1
[1]
  AC50: 6.76 µM (active)
[9]
  AC50: 41.5 µM (active)

## CC1(C)Nc2ccccc2C(=O)N1c1ccc(Br)cc1
[10]
  IC50: > 67.5 µM (inactive)
[11]
  IC50: > 67.5 µM (inactive)

## CS(=O)(=O)Nc1ccc(C2=NN(S(C)(=O)=O)C(c3cccs3)C2)cc1 (stereo not given)
[2]
  AC50: 2.38 µM (active)
[9]
  AC50: 6.27 µM (active)
[12]
  AC50: 4.41 µM (active)

## CC(C)COc1ccc(C(=O)Nc2sc3c(c2C(=O)O)CC(C)(C)OC3)cc1
[13]
  EC50: 11.3 µM (active)
[14]
  EC50: 2.59 µM (active)
[15]
  IC50: 5.19 µM (active)
[16]
  EC50: 0.22 µM (active)
[17]
  EC50: > 120 µM (not active)
[18]
  EC50: 11.2 µM (active)
[19]
  IC50: > 20 µM (inactive)
[20]
  IC50: > 20 µM (inactive)
[21]
  IC50: 12.6 µM (active)

## O=C(c1ccc2c(c1)N(Cc1ccccc1)C(=O)CS2)N1CCOCC1
[22]
  AC50: 14.1 µM (inconclusive)
[23]
  AC50: inconclusive
[24]; read-out: AC50
  AC50: 28.2 µM (inconclusive)

## COc1ccc(-n2c(=O)c(-c3ccccc3)nc3cnc(N4CCN(C)CC4)nc32)cc1
[22]
  AC50: 31.6 µM (inconclusive)
[25]
  AC50: inconclusive
[26]
  AC50: 20 µM (inconclusive)

## CN1C(=O)C(=N)c2c3ccccc3c(O)c3c(Br)ccc1c23
[3]
  AC50: 0.519 µM (active)
[27]
  AC50: 303 µM (active)
[28]
  AC50: 2.73 µM (active)
[6]
  AC50: 0.54 µM (active)
[7]
  EC50: 0.66 µM (inconclusive)
[8]
  EC50: < 0.06 µM (inconclusive)

## Cc1cc(/C=C2\SC(=S)N(C)C2=O)c(C)n1-c1cccc(O)c1
[14]
  EC50: 9.29 µM (active)
[15]
  IC50: 0.695 µM (active)
[16]
  EC50: 1.1 µM (active)
[19]
  IC50: 9.54 µM (active)
[20]
  IC50: 4.55 µM (active)
[21]
  IC50: > 20 µM (inactive)

## O=C(O)c1cc(/N=N\c2ccc(S(=O)(=O)Nc3ccccn3)cc2)ccc1O
[22]
  AC50: 7.94 µM (inconclusive)
[29]
  AC50: inactive
[25]
  AC50: inactive
[23]
  AC50: inactive
[24]
  AC50: inactive

## CC(=O)NNc1ncnc2ccccc12
[10]
  IC50: > 67.5 µM (inactive)
[11]
  IC50: > 67.5 µM (inactive)

## COc1ccccc1NC(=O)Nc1ccc(C(=O)N2CCCCC2)cc1
[30]
  EC50: 2.01 µM (active)
[31]
  AC50: 67 µM (active)
[32]
  EC50: 6.67 µM (active)

## CCn1c(C(=O)OC)cc2c1ccn2-c1ccc(F)cc1
[33]
  EC50: 69.7 µM (active)
[31]
  AC50: 91.9 µM (active)
[34]
  EC50: > 120 µM (not active)
